From ChEMBL document CHEMBL4152370, “Identification of N-(5-(phenoxymethyl)-1,3,4-thiadiazol-2-yl)acetamide derivatives as novel protein tyrosine phosphatase epsilon inhibitors exhibiting anti-osteoclastic activity” (Bioorg Med Chem, 2018)
Active and inactive are the calls of the source. No cut-off for these calls is given here.

What was measured:
[1] = biological target: T1, Receptor-type tyrosine-protein phosphatase epsilon (Homo sapiens, UniProt P23469); test: Inhibition of recombinant human cytosolic PTPepsilon expressed in Escherichia coli BL21 (DE3) using E527-P-Q-pY530-Q-P-G-E-N-L536 as substrate after 60 mins by malachite green assay
Monocyte = test: Inhibition of RANKL-induced human monocytes differentiation into osteoclasts after 4 days in presence of M-CSF by tartrate-resistant acid phosphatase staining based assay; assay type: functional, cell-based
[2] = biological target: T1, Receptor-type tyrosine-protein phosphatase epsilon; test: Inhibition of cytosolic PTPepsilon in human monocyte-derived osteoclasts assessed as relative level of Tyr530 phosphorylated c-Src/beta actin at 17 uM after 15 mins in presence of M-CSF/RANKL by Western blot method relative to control
Osteoclast [3] = test: Cytotoxicity against human monocyte-derived osteoclasts assessed as effect on cell viability at 2 to 17 uM by formazan-based spectrometric method
Osteoclast [4] = test: Effect on relative level of total c-Src/beta-actin in human monocyte-derived osteoclasts at 17 uM after 15 mins in presence of M-CSF/RANKL by Western blot method relative to control; assay type: cell-based; conditions: 0.25 h
[5] = biological target: T1, Receptor-type tyrosine-protein phosphatase epsilon; test: Inhibition of cytosolic PTPepsilon in human monocyte-derived osteoclasts assessed as disruption of podosome organization at 17 uM after 4 days in presence of M-CSF/RANKL by DAPI staining-based immunofluorescence assay

T1 sequence (P23469 whole entry): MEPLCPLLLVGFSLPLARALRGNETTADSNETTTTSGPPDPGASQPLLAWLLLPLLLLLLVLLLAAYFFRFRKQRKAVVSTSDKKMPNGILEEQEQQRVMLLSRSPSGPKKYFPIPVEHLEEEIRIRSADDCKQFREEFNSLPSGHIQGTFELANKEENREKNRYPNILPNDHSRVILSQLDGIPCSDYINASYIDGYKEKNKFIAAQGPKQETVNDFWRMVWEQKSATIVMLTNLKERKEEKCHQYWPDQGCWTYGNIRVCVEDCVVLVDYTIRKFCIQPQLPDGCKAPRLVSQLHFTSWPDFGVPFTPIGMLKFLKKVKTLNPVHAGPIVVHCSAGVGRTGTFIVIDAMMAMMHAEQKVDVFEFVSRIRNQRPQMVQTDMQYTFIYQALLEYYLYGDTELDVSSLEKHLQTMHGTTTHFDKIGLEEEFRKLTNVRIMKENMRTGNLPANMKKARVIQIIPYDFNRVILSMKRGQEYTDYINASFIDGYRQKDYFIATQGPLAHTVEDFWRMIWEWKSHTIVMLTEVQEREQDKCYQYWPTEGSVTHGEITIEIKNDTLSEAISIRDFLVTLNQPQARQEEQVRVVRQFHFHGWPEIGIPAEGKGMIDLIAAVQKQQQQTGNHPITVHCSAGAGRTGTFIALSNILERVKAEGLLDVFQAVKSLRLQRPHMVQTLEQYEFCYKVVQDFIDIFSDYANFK

SMILES	IC50 [1]	inhibition (Monocyte)	fold change (FC) [2]	fold change (FC) (Osteoclast [4])	inhibition [5]	Activity (Osteoclast [3])
COc1ccccc1OCC(=O)Nc1nnc(COc2ccccc2)s1	3700 nM	–	–	–	–	–
CCC(C)c1ccc(OCc2nnc(NC(=O)Nc3ccccc3OC)s2)cc1 (stereo not given)	4170 nM	–	–	–	–	–
Cc1ccc(NC(=O)Nc2nnc(COc3ccc(C)cc3C)s2)cc1	2470 nM	Dose-dependent effect	1.87	1.12	Active	Non-Toxic

These reach a lower IC50 [1]. Values come first.

IC50 [1]	inhibition (Monocyte)	fold change (FC) [2]	fold change (FC) (Osteoclast [4])	inhibition [5]	SMILES	Activity (Osteoclast [3])
2010 nM	–	–	–	–	O=C(COc1ccc2c(c1)OCO2)Nc1nnc(COc2ccc(Cl)cc2)s1	–
1860 nM	Dose-dependent effect	1.57	1.29	Active	Cc1ccc(OCc2nnc(NC(=O)Nc3ccc(F)c(Cl)c3)s2)c(C)c1	Non-Toxic
